In patent US20240092784A1, “CONDENSED HETEROCYCLIC COMPOUND” (NISSAN CHEMICAL CORPORATION, priority 2020, published 2024):
pIC50: −log10 of the molar value. Structures can show the parent of a compound that is named as a salt.

target: human SPR (Homo sapiens (Human), UniProt P35270); assay: Evaluation Example 2: Measurement of human SPR inhibitory activity (seven concentrations, sepiapterin absorbance at 420 nm); type: biochemical; conditions: Evaluation Example 2, seven concentrations 0.14 nM to 100 nM, 240 minutes at room temperature, read-out: IC50
Sequence (P35270 whole entry): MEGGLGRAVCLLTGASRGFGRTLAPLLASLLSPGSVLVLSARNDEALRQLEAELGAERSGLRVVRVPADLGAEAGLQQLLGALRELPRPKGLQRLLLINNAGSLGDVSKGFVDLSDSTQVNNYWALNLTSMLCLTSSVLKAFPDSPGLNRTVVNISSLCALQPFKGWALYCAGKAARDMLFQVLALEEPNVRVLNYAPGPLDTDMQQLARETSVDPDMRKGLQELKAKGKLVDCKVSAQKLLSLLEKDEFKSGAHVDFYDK
Protocol: Human SPR was prepared as described below. The full-length human SPR (1-261) cDNA was purchased from Eurofins Genomics as an artificially synthesized plasmid containing a DNA sequence optimized for the E. coli expression system so that the sequence of the expressed protein after transcription and translation matches the sequence described in UniprotKB (P35270).
Linearized insert and vector were prepared by PCR using primers designed for amplification of human SPR cDNA and primers designed to contain the thrombin recognition sequence of pET28a (Novagen) and a polyhistidine tag. Cloning was performed using In-Fusion (registered trademark) HD Cloning Kit (TaKaRa) to thereby construct a human SPR expression plasmid. The resultant human SPR expression plasmid was transformed into BL21 (DE3) competent cells (INVITROGEN).
The cells were inoculated into LB medium (1% triptone, 0.5% yeast extract, 1% sodium chloride) containing […] of kanamycin, and then precultured at 37° C. overnight. The precultured cells were inoculated into TB medium (1.2% triptone, 2.4% yeast extract, 9.4% dipotassium hydrogen phosphate, 2.2% potassium dihydrogen phosphate, 0.8% glycerin) containing […] of kanamycin, and the cultured at 37° C., to thereby induce SPR expression with 0.5 mM IPTG for four hours. After the induction, the cells were collected by centrifugation at 6,000 G for 30 minutes and washed with PBS, and the washing was discarded. The washed cells were suspended in buffer solution A (20 mM MES, pH 6.5, 100 mM sodium chloride, 1 mM DTT, 5 mM imidazole). Subsequently, the cell suspension was subjected to ultrasonic treatment to thereby homogenize the cells. The cell homogenate was clarified by centrifugation at 30,000 G for 60 minutes and then filtered with a […]. The filtrate was allowed to pass through HisTrapFF 5 mL column (GE Healthcare). The resin was washed with buffer A, and then gradient elution was performed with buffer B (20 mM MES, pH 6.5, 100 mM sodium chloride, 1 mM DTT, 500 mM imidazole). Thrombin was added to a fraction containing the SPR protein, and the mixture was dialyzed in buffer A overnight, to thereby cleave the tag. After removal of the thrombin by with Benzamidine Sepharose 4 FF (GE Healthcare), the resultant product was allowed to pass through the HisTrapFF 5 mL column, to thereby remove the tag, followed by concentration with Amicon Ultra 10,000 NMWL (Merck Millipore). The concentrate was purified by gel filtration using HiLoad 16/60 Superdex 75 pg (GE Healthcare) equilibrated with buffer C (20 mM MES, pH 6.5, 100 mM sodium chloride, 1 mM DTT). The fraction containing SPR protein was concentrated and then cryopreserved at −80° C.
Human SPR inhibitory activity was measured by using a 384-well low adsorption clear plate (Greiner) with buffer D containing 100 mM Tris-HCl (pH 7.5) (Thermo Fisher Scientific) and 0.01% bovine serum albumin (Sigma). A compound was diluted with DMSO to achieve seven different final concentrations; i.e., 0.14 nM, 0.41 nM, 1.23 nM, 3.7 nM, 11.1 nM, 33 nM, and 100 nM. A 1.5 μL aliquot of the compound solution prepared with DMSO was diluted with 250 μL of buffer D, and the thus-diluted solution was dispensed into the 384-well plate at 20 μL/well. Thereafter, human SPR was diluted with buffer D to 150 ng/mL and then dispensed into the 384-well plate at 20 μL/well. Subsequently, 40 μL of ultrapure water containing 120 μM sepiapterin (produced by the method described in L-Sepiapterin, Heterocycles, 2008, 76, 1329-1335 and WO 2013/168693) and 160 μM NADPH (Nacalai) was added to each well, and then reaction was initiated. The reaction mixture was incubated at room temperature for 240 minutes. Thereafter, in order to determine the amount of sepiapterin, the absorbance at 420 nm was measured by applying the 384-well plate to EnSpire multimode plate reader (Perkin Elmer). The percent inhibition (%) of human SPR by the test compound was calculated by the following formula.

First: CCC(N)c1cc2n(CC(C)(C)C)c(=O)c(C(=O)NC3CC3)c(O)n2n1 (racemic) [Synthesis Example 280, 2-(1-Aminopropyl)-N-cyclopropyl-7-hydroxy-4-neopentyl-5-oxo-4,5-dihydropyrazolo[1,5-a]pyrimidine-6-carboxamide hydrochloride (racemate)]
Second: CC(C)Cn1c(=O)c(C(=O)NC2CC2)c(O)n2ncc(/C=C/C(=O)N3CCC(C)(O)C3)c12 (racemic) [compound 500, (E)-N-Cyclopropyl-7-hydroxy-3-(3-(3-hydroxy-3-methylpyrrolidin-1-yl)-3-oxoprop-1-en-1-yl)-4-isobutyl-5-oxo-4,5-dihydropyrazolo[1,5-a]pyrimidine-6-carboxamide (racemate)]
The pIC50 of the first is 0.81 log units lower: 8.25 for the first, 9.06 for the second.

`Cc1nn2c(O)c(C(=O)NC3CC3)c(=O)n(CC(C)C)c2c1/C=C/C(=O)N1C[C@@H](F)[C@H](F)C1` (racemic) [Synthesis Example 649, N-Cyclopropyl-3-((E)-3-(trans-3,4-difluoropyrrolidin-1-yl)-3-oxoprop-1-en-1-yl)-7-hydroxy-4-isobutyl-2-methyl-5-oxo-4,5-dihydropyrazolo[1,5-a]pyrimidine-6-carboxamide] and `CC(C)Cn1c(=O)c(C(=O)NC2CC2)c(O)n2ncc(/C=C/C(=O)N3CCC(C(F)F)C3)c12` (racemic) [compound 596, (E)-N-Cyclopropyl-3-(3-(3-(difluoromethyl)pyrrolidin-1-yl)-3-oxoprop-1-en-1-yl)-7-hydroxy-4-isobutyl-5-oxo-4,5-dihydropyrazolo[1,5-a]pyrimidine-6-carboxamide (racemate)] are within 0.2 log units of each other in pIC50: 9.14 for the first, 9.02 for the second.

First: CC(C)Cn1c(=O)c(C(=O)NC2CC2)c(O)n2ncc(/C=C/C(=O)N3CCC(F)(F)CC3C)c12 (racemic) [compound 546, (E)-N-Cyclopropyl-3-(3-(4,4-difluoro-2-methylpiperidin-1-yl)-3-oxoprop-1-en-1-yl)-7-hydroxy-4-isobutyl-5-oxo-4,5-dihydropyrazolo[1,5-a]pyrimidine-6-carboxamide (racemate)]
Second: CC(C)Cn1c(=O)c(C(=O)NC2CC2)c(O)n2ncc(/C=C/C(=O)N3CCC4CC43)c12 (racemic) [compound 588, (E)-3-(3-(2-Azabicyclo[3.1.0]hexan-2-yl)-3-oxoprop-1-en-1-yl)-N-cyclopropyl-7-hydroxy-4-isobutyl-5-oxo-4,5-dihydropyrazolo[1,5-a]pyrimidine-6-carboxamide (racemate)]
The pIC50 of the first is 0.31 log units higher: 9.11 for the first, 8.80 for the second.

`CC(C)Cn1c(=O)c(C(=O)NC2CC2)c(O)n2ncc(/C=C/C(=O)N3CCCC3C3CC3)c12` (racemic) [compound 593, (E)-N-Cyclopropyl-3-(3-(2-cyclopropylpyrrolidin-1-yl)-3-oxoprop-1-en-1-yl)-7-hydroxy-4-isobutyl-5-oxo-4,5-dihydropyrazolo[1,5-a]pyrimidine-6-carboxamide (racemate)] and `CC(C)Cn1c(=O)c(C(=O)NC2CC2)c(O)n2ncc(/C=C/C(=O)N3CCC(C(F)(F)F)C3)c12` (racemic) [compound 595, (E)-N-Cyclopropyl-7-hydroxy-4-isobutyl-5-oxo-3-(3-oxo-3-(3-(trifluoromethyl)pyrrolidin-1-yl)prop-1-en-1-yl)-4,5-dihydropyrazolo[1,5-a]pyrimidine-6-carboxamide (racemate)] are within 0.2 log units of each other in pIC50: 8.83 for the first, 8.81 for the second.

same assay, conditions: sepiapterin absorbance, Table 41, read-out: concentration at 50% inhibition of human SPR (IC50)

`CC(C)Cn1c(=O)c(C(=O)NC2CC2)c(O)n2ncc(/C=C/C(=O)N3C[C@@H](F)[C@H](F)C3)c12` (racemic) [Synthesis Example 723, N-Cyclopropyl-3-((E)-3-(trans-3,4-difluoropyrrolidin-1-yl)-3-oxoprop-1-en-1-yl)-7-hydroxy-4-isobutyl-5-oxo-4,5-dihydropyrazolo[1,5-a]pyrimidine-6-carboxamide (racemate)] showed a pIC50 of 9.16.
